The results in this text go back to patent US20110195900A1, “PEPTIDIC PTH RECEPTOR AGONISTS” (FERRING B.V., priority 2008, published 2011).

Where two headings read alike, the source gives them in different places. Non-standard residues stand in square brackets, D forms with d. Residues, ends and D or L forms follow the SMILES beside them. 1Nal = N[C@@H](Cc1cccc2ccccc12)C(=O)O; β3hI = CC[C@H](C)[C@H](N)CC(=O)O; Nle = CCCC[C@H](N)C(=O)O; Aib = CC(C)(N)C(=O)O; βAla = NCCC(=O)O

One test deals with T1, human PTH-1 receptor (Homo sapiens, UniProt Q03431).
T1 construct: expressed in transfected cells; host or cells: HEK-293
T1 sequence (Q03431 27-593): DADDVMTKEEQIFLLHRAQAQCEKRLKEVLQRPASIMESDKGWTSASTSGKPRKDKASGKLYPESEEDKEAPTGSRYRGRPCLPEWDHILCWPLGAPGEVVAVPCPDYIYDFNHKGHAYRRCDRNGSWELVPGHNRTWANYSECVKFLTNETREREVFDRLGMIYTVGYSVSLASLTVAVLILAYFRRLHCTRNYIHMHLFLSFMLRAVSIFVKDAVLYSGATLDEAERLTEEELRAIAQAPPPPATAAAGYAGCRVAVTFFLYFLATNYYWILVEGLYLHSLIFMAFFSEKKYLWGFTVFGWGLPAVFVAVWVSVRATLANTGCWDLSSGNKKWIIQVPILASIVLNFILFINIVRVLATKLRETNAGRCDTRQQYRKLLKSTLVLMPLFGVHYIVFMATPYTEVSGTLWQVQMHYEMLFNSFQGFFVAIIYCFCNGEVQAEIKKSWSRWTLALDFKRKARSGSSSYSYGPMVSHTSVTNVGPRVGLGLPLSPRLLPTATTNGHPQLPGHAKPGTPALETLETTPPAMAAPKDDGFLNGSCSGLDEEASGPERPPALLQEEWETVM
The experiment in a line: Reporter gene assay (CRE-luciferase) for agonist activity in transiently transfected HEK-293 cells. The settings on record: for hPTHR-2/hPTHR-1: Table 3, selectivity for hPTH-1 receptor over hPTH-2 receptor. It counts as cell-based. The method, boiled down: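 HEK-293 cells transiently transfected with SV40-driven human PTH-1 receptor and CRE-luciferase reporter, exposed to serial compound dilutions for 4-5 h, then lysed for luciferase readout; efficacy and EC50 by non-linear regression, PTH (1-34) as internal control, n≥3. Selectivity measured in analogous human PTH-2 receptor luciferase reporter assays.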
Background: In a reporter assay the amount or activity of a reporter protein is the signal.

A further test deals with T2, human PTH-2 receptor (Homo sapiens, UniProt P49190).
T2 construct: expressed in transfected cells
In words: Luciferase-based transcriptional reporter gene assay for selectivity. It counts as cell-based. The method, then: Agonist activity of compounds on the human PTH-1 receptor was determined in a reporter gene assay by transiently transfecting HEK-293 cells with plasmids encoding human PTH-1 receptor under control of the SV40 promoter and a luciferase reporter gene under control of cAMP responsive elements (CRE). See Himmler et al, J. Recept. Res. 13 (1993) 79-94, for further guidance on this assay. Transfected cells were exposed to serial dilutions of compounds for 4-5 hours followed by lysis of cells, determination of luciferase activity, and determination of compound efficacies and EC50 values through non-linear regression.
PTH (1-34) was used as an internal control in each experiment and compounds were tested in at least three independent experiments. To determine selectivity, compounds were tested in luciferase-based transcriptional reporter gene assays expressing the human PTH-2 receptor.

T2 sequence (P49190 25-550): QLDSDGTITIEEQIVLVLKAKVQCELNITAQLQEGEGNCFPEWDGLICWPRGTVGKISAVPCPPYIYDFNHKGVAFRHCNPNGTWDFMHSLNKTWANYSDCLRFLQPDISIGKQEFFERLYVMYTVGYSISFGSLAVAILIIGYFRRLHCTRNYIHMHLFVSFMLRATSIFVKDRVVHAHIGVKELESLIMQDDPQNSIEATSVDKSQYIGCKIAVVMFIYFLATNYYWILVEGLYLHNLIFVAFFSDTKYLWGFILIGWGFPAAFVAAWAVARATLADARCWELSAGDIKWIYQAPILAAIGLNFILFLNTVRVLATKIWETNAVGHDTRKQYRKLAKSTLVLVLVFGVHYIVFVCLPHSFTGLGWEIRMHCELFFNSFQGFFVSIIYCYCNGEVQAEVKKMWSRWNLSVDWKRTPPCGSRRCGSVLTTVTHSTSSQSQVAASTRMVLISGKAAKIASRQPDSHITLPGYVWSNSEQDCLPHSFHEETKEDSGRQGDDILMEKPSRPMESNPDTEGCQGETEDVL

Usually EC50 stands for the midpoint of the concentration-response curve. `CCCC[C@H](NC(=O)[C@H](CC(C)C)NC(=O)[C@H](CCC(N)=O)NC(=O)[C@@H](NC(=O)[C@H](CCC(=O)O)NC(=O)[C@H](CO)NC(=O)[C@@H](NC(=O)[C@@H](N)CO)C(C)C)[C@@H](C)CC)C(=O)N[C@@H](Cc1c[nH]cn1)C(=O)N[C@@H](CC(N)=O)C(=O)N[C@@H](CC(C)C)C(=O)NCC(=O)N[C@@H](CCCCN)C(=O)N[C@@H](Cc1c[nH]cn1)C(=O)N[C@@H](CC(C)C)C(=O)N[C@@H](CC(N)=O)C(=O)N[C@@H](CO)C(=O)N[C@H](CC(=O)N[C@@H](CCC(=O)O)C(=O)N[C@@H](CCCNC(=N)N)C(=O)N[C@H](C(=O)N[C@@H](CCC(=O)O)C(=O)N[C@@H](Cc1cccc2ccccc12)C(=O)N[C@@H](CC(C)C)C(=O)N[C@@H](CCCNC(=N)N)C(=O)N[C@@H](CCCCN)C(=O)N[C@@H](CC(C)C)C(=O)N[C@@H](CC(C)C)C(=O)N[C@@H](CCC(N)=O)C(=O)N[C@@H](CC(=O)O)C(=O)N[C@H](C(N)=O)C(C)C)C(C)C)[C@@H](C)CC` [SEQ ID NO: 1, [Nle^8, β-hIle^18,1-Nal^23, Leu^27] hPTH-(1-31)-NH2] (H-SVSEIQL[Nle]HNLGKHLNS[β3hI]ERVE[1Nal]LRKLLQDV-NH2; N-terminus assumed): the EC50 at human PTH-1 receptor was found to be 0.09 nM; at human PTH-2 receptor, 32 nM. The hPTHR-2/hPTHR-1 at human PTH-1 receptor (ratio of EC50 values) was determined as 339. In addition, the “potency at the hPTH-1 receptor compared to PTH (1-34)” value at human PTH-1 receptor (in words) is recorded as “Improved potency”.
In the case of `CCCC[C@H](NC(=O)CCNC(=O)[C@H](CC(N)=O)NC(=O)[C@H](CC(C)C)NC(=O)[C@H](Cc1c[nH]cn1)NC(=O)[C@H](CCCCN)NC(=O)CNC(=O)[C@H](CC(C)C)NC(=O)[C@H](CC(N)=O)NC(=O)[C@H](Cc1c[nH]cn1)NC(=O)[C@H](CCCC)NC(=O)[C@H](CC(C)C)NC(=O)[C@H](CCC(N)=O)NC(=O)[C@@H](NC(=O)[C@H](CCC(=O)O)NC(=O)[C@H](CO)NC(=O)[C@@H](NC(=O)C(C)(C)N)C(C)C)[C@@H](C)CC)C(=O)N[C@@H](CCC(=O)O)C(=O)N[C@@H](CCCNC(=N)N)C(=O)N[C@H](C(=O)N[C@@H](CCC(=O)O)C(=O)N[C@@H](Cc1cccc2ccccc12)C(=O)N[C@@H](CC(C)C)C(=O)N[C@@H](CCCNC(=N)N)C(=O)N[C@@H](CCCCN)C(=O)N[C@@H](CCCCN)C(=O)N[C@@H](CC(C)C)C(=O)N[C@@H](CCC(N)=O)C(=O)N[C@@H](CC(=O)O)C(=O)N[C@H](C(=O)N[C@@H](Cc1c[nH]cn1)C(=O)N[C@@H](CC(N)=O)C(=O)N[C@@H](Cc1ccccc1)C(N)=O)C(C)C)C(C)C` [SEQ ID NO: 55, [Aib^1, Nle^8,18, β-Ala^17,1-Nal^23] hPTH (1-34)-NH2] (H-[Aib]VSEIQL[Nle]HNLGKHLN[βAla][Nle]ERVE[1Nal]LRKKLQDVHNF-NH2), the EC50 on human PTH-1 receptor (Table 4 comparison data, HEK-293 cells, CRE-luciferase, read-out: hPTHR-1 EC50) came to 0.22 nM; on human PTH-2 receptor (Table 4 comparison data, luciferase reporter gene assay, read-out: hPTHR-2 EC50), 46 nM. The “Selectivity hPTHR-2/hPTHR-1” value at human PTH-1 receptor (Table 4 comparison data, ratio of EC50 values) is 213.
Turning to `CCCC[C@H](NC(=O)[C@H](CO)NC(=O)[C@H](CC(N)=O)NC(=O)[C@H](CC(C)C)NC(=O)[C@H](Cc1c[nH]cn1)NC(=O)[C@H](CCCCN)NC(=O)CNC(=O)[C@H](CC(C)C)NC(=O)[C@H](CC(N)=O)NC(=O)[C@H](Cc1c[nH]cn1)NC(=O)[C@H](CCCC)NC(=O)[C@H](CC(C)C)NC(=O)[C@H](CCC(N)=O)NC(=O)[C@@H](NC(=O)[C@H](CCC(=O)O)NC(=O)[C@H](CO)NC(=O)[C@@H](NC(=O)[C@@H](N)CO)C(C)C)[C@@H](C)CC)C(=O)NCCC(=O)N[C@@H](CCCNC(=N)N)C(=O)N[C@H](C(=O)N[C@@H](CCC(=O)O)C(=O)N[C@@H](Cc1cccc2ccccc12)C(=O)N[C@@H](CC(C)C)C(=O)N[C@@H](CCCNC(=N)N)C(=O)N[C@@H](CCCCN)C(=O)N[C@@H](CC(C)C)C(=O)N[C@@H](CC(C)C)C(=O)N[C@@H](CCC(N)=O)C(=O)N[C@@H](CC(=O)O)C(=O)N[C@H](C(=O)N[C@@H](Cc1c[nH]cn1)C(=O)N[C@@H](CC(N)=O)C(=O)N[C@@H](Cc1ccccc1)C(N)=O)C(C)C)C(C)C` [SEQ ID NO: 11, [Nle^8,18, β-Ala^19,1-Nal^23, Leu^27] hPTH-(1-34)-NH2] (H-SVSEIQL[Nle]HNLGKHLNS[Nle][βAla]RVE[1Nal]LRKLLQDVHNF-NH2; N-terminus assumed), the hPTHR-2/hPTHR-1 on human PTH-1 receptor (ratio of EC50 values) is given as 69. The EC50 on human PTH-2 receptor (Table 3, luciferase reporter gene assay, read-out: hPTHR-2 EC50) is 18 nM.
With `CCCC[C@H](NC(=O)[C@H](CC(C)C)NC(=O)[C@H](CCC(N)=O)NC(=O)[C@@H](NC(=O)[C@H](CCC(=O)O)NC(=O)[C@H](CO)NC(=O)[C@@H](NC(=O)[C@@H](N)CO)C(C)C)[C@@H](C)CC)C(=O)N[C@@H](Cc1c[nH]cn1)C(=O)N[C@@H](CC(N)=O)C(=O)N[C@@H](CC(C)C)C(=O)NCC(=O)N[C@@H](CCCCN)C(=O)N[C@@H](Cc1c[nH]cn1)C(=O)N[C@@H](CC(C)C)C(=O)N[C@@H](CC(N)=O)C(=O)N[C@@H](CO)C(=O)N[C@H](CC(=O)N[C@@H](CCC(=O)O)C(=O)N[C@@H](CCCNC(=N)N)C(=O)N[C@H](C(=O)N[C@@H](CCC(=O)O)C(=O)N[C@@H](Cc1cccc2ccccc12)C(=O)N[C@@H](CC(C)C)C(=O)N[C@@H](CCCNC(=N)N)C(=O)N[C@@H](CCCCN)C(=O)N[C@@H](CC(C)C)C(=O)N[C@@H](CC(C)C)C(=O)N[C@@H](CCC(N)=O)C(=O)N[C@@H](CCCNC(=N)N)C(=O)N[C@H](C(=O)N[C@@H](Cc1c[nH]cn1)C(=O)N[C@@H](CC(N)=O)C(=O)N[C@@H](Cc1ccccc1)C(N)=O)C(C)C)C(C)C)[C@@H](C)CC` [SEQ ID NO: 35, [Nle^8, β-hIle^18,1-Nal^23, Leu^27, Arg^30] hPTH (1-34)-NH2] (H-SVSEIQL[Nle]HNLGKHLNS[β3hI]ERVE[1Nal]LRKLLQRVHNF-NH2; N-terminus assumed), the EC50 is 0.18 nM at human PTH-1 receptor and 7 nM at human PTH-2 receptor. Moreover, at human PTH-1 receptor (ratio of EC50 values), the hPTHR-2/hPTHR-1 was determined as 40.
For `CCCC[C@H](NC(=O)[C@H](CC(C)C)NC(=O)[C@H](CCC(N)=O)NC(=O)[C@@H](NC(=O)[C@H](CCC(=O)O)NC(=O)[C@H](CO)NC(=O)[C@@H](NC(=O)[C@@H](N)CO)C(C)C)[C@@H](C)CC)C(=O)N[C@@H](Cc1c[nH]cn1)C(=O)N[C@@H](CO)C(=O)N[C@@H](CC(C)C)C(=O)NCC(=O)N[C@@H](CCCCN)C(=O)N[C@@H](Cc1c[nH]cn1)C(=O)N[C@@H](CC(C)C)C(=O)N[C@@H](CCCCN)C(=O)N[C@@H](CO)C(=O)N[C@H](CC(=O)N[C@@H](CCC(=O)O)C(=O)N[C@@H](CCCNC(=N)N)C(=O)N[C@H](C(=O)N[C@@H](CCC(=O)O)C(=O)N[C@@H](Cc1cccc2ccccc12)C(=O)N[C@@H](CC(C)C)C(=O)N[C@@H](CCCNC(=N)N)C(=O)N[C@@H](CCCCN)C(=O)N[C@@H](CC(C)C)C(=O)N[C@@H](CC(C)C)C(=O)N[C@@H](CCC(N)=O)C(=O)N[C@@H](CCCNC(=N)N)C(=O)N[C@H](C(N)=O)C(C)C)C(C)C)[C@@H](C)CC` [SEQ ID NO: 49, [Nle^8, Ser^10, Lys^16, β-hIle^18,1-Nal^23, Leu^27, Arg^30] hPTH (1-31)-NH2] (H-SVSEIQL[Nle]HSLGKHLKS[β3hI]ERVE[1Nal]LRKLLQRV-NH2) the same measures were 0.08 nM, 7 nM and 87.
The corresponding values for `CCCC[C@H](NC(=O)CCNC(=O)[C@H](CCCCN)NC(=O)[C@H](CC(C)C)NC(=O)[C@H](Cc1c[nH]cn1)NC(=O)[C@H](CCCCN)NC(=O)CNC(=O)[C@H](CC(C)C)NC(=O)[C@H](CO)NC(=O)[C@H](Cc1c[nH]cn1)NC(=O)[C@H](CCCC)NC(=O)[C@H](CC(C)C)NC(=O)[C@H](CCC(N)=O)NC(=O)[C@@H](NC(=O)[C@H](CCC(=O)O)NC(=O)[C@H](CO)NC(=O)[C@@H](NC(=O)C(C)(C)N)C(C)C)[C@@H](C)CC)C(=O)N[C@@H](CCC(=O)O)C(=O)N[C@@H](CCCNC(=N)N)C(=O)N[C@H](C(=O)N[C@@H](CCC(=O)O)C(=O)N[C@@H](Cc1cccc2ccccc12)C(=O)N[C@@H](CC(C)C)C(=O)N[C@@H](CCCNC(=N)N)C(=O)N[C@@H](CCCCN)C(=O)N[C@@H](CC(C)C)C(=O)N[C@@H](CC(C)C)C(=O)N[C@@H](CCC(N)=O)C(=O)N[C@@H](CCCNC(=N)N)C(=O)N[C@H](C(=O)N[C@@H](Cc1c[nH]cn1)C(=O)N[C@@H](CCC(=O)O)C(=O)N[C@@H](CCC(=O)O)C(N)=O)C(C)C)C(C)C` [SEQ ID NO: 6, [Aib^1, Nle^8,18, Ser^10, Lys^16, β-Ala^17,1-Nal^23, Leu^27, Arg^30, Glu^33, Glu^34] hPTH (1-34)-NH2] (H-[Aib]VSEIQL[Nle]HSLGKHLK[βAla][Nle]ERVE[1Nal]LRKLLQRVHEE-NH2; N-terminus assumed) are 0.03 nM, 7 nM and 267.
